Values quoted from earlier work, collected in patent US11033509B2 (BIOGEN MA INC., priority 2016, dated 2021).
Structures can show the parent of a compound that is named as a salt.

Details: DMF absorbed in vivo and converted to MMF

half-life of MMF: approximately 1 hour
SMILES: COC(=O)/C=C/C(=O)O [MMF, monomethyl fumarate]
